Laboratory results from patent US5593970A, “Heterocyclic anthracycline analogs” (priority 1994, dated 1997).
Counter-ions that a name gives are not always drawn. Like-named read-outs stand apart in the source and are kept apart here.

Experiments:
LOX = test: Microculture tetrazolium assay; assay type: cell-based; conditions: read-out: IC50
SKOV3 = test: Microculture tetrazolium assay; assay type: cell-based; conditions: read-out: IC50
HT29 = test: Microculture tetrazolium assay; assay type: cell-based; conditions: read-out: IC50
MCF7/ADR = test: Soft agar colony formation disk diffusion assay; assay type: cell-based, human
Method in brief: (§1)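 Plate cells in an upper 0.4% agar layer over a 0.8% agar base, then add compound on a 6.5 mm disk one-third from the dish edge. Incubate 10–20 days at 37 °C, 5% CO2. Measure the colony-free zone around the disk with a calibrated micrometer.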

LS180 = test: Soft agar colony formation disk diffusion assay; assay type: cell-based, human
Method in brief: as §1

MCF7 = test: Soft agar colony formation disk diffusion assay; assay type: cell-based, human
Method in brief: as §1

P388 = test: Soft agar colony formation disk diffusion assay; assay type: cell-based, murine
Excerpt: (§2) A more elaborate version of this fundamental assay, the soft agar colony formation disk diffusion assay was used. This assay defines the relative activity of one particular drug versus a tumoral cell line type. The effect of the test drug against tumoral cells could be measured by its inhibitory capacity against colony formation after the delivery of the compound, in different concentrations on an filter disk(4). A modified technique of this assay was used in order to investigate the antiproliferative activity of candidate compounds. Tumoral cells from solid tumors and ascitic lines were plated separately in a two layer agar matrix. Cell lines to be tested were suspended in an upper layer of 0.4% Noble agar (Difco#00142-01) in RPMI-1066 (Gibco#3201875) at a yield varying between 10^4 to 2×10^5 cells per 60 mm Petri dish. Plating efficiency was determined for each line in order to achieve an optimal number of colonies per dish. Plates were examined before drug administration to confirm a uniform dispersion of single cells. The bottom layer consisted of 0.8% Noble agar, 0.8% Tryptic Soy Broth (difco#0037001)in CMRL-1066/Fischer's. The bottom layers were used within 2 and 9 days of preparation. Plated dishes (bottom layer of agar, upper layer of cells and administered drug were incubated in humidified atmosphere at 37° C., 5% CO2 for 10-20 days depending upon the time necessary to observe adequate colonies (defined as a cell aggregate of more than 50 cells) both control and drug inhibited. Drugs were administered on a paper filter disk (Whatman No. 1) of 6.5 mm diameter placed on the upper layer at 1/3 distance from the edge of the dish. The anti-clonogenic activity of the compounds was measured as the zone of inhibition from the disk edge to the most proximal colonies. This zone of inhibition was checked on an inverted microscope (40×) and was measured with a micrometer mounted in the eyepiece. The ocular micrometer was calibrated with a stage micrometer set for a particular combination of ocular and objective lenses. […] We made a modification of the initial technique by not plating a solid tumor and a leukemia simultaneously in the same Petri dish. Anti-clonogenic tests performed on leukemia cell line have helped in the discovery of the majority of current clinically used cytostatic drugs. Our tests on solid tumor lines (animal or human) may help define active compounds with solid tumor specificity. […] Murine tumors were maintained IN VIVO in order to diminish the selection of subpopulations of cells normally present in the heterogenous IN VIVO tumor. The actual drug sensitivity assay was done IN VITRO. For these experiments cells from freshly excised tumors or from ascitic fluids were maintained in RPMI-1066. Both compounds were dissolved in DMSO (1 mg/100 ul) and brought to final volume (250 ul) with Millipore deionized sterile water. Further dilutions were made with […] volume of 25 ul of freshly prepared solution was placed on the filter disk and allowed to dry.

B16 = test: Soft agar colony formation disk diffusion assay; assay type: cell-based, murine
Excerpt: as §2

M5076 = test: Soft agar colony formation disk diffusion assay; assay type: cell-based, murine
Excerpt: as §2

LL = test: Soft agar colony formation disk diffusion assay; assay type: cell-based, murine
Excerpt: as §2

P388/ADR = test: Soft agar colony formation disk diffusion assay; assay type: cell-based, murine
Excerpt: as §2

Row | IC50 (LOX) [µM] | IC50 (SKOV3; SKOV3) [µM] | IC50 (HT29; HT29) [µM] | Compound | zone of inhibition (MCF7/ADR; 10 μg/DISK) [Zone Units] | zone of inhibition (MCF7/ADR; 100 μg/DISK) [Zone Units] | zone of inhibition (LS180; 10 μg/DISK) [Zone Units] | zone of inhibition (LS180; 100 μg/DISK) [Zone Units] | zone of inhibition (MCF7; 10 μg/DISK) [Zone Units] | zone of inhibition (MCF7; 100 μg/DISK) [Zone Units] | zone of inhibition (P388; 10 μg/DISK) [Zone Units] | zone of inhibition (P388; 100 μg/DISK) [Zone Units] | zone of inhibition (B16; 10 μg/DISK) [Zone Units] | zone of inhibition (B16; 100 μg/DISK) [Zone Units] | zone of inhibition (M5076; 10 μg/DISK) [Zone Units] | zone of inhibition (M5076; 100 μg/DISK) [Zone Units] | zone of inhibition (LL; 100 μg/DISK) [Zone Units] | zone of inhibition (P388/ADR; 10 μg/DISK) [Zone Units] | zone of inhibition (P388/ADR; 100 μg/DISK) [Zone Units] | also measured
1 | 15 | 8.22 | 13.4 | 3-(2-hydroxy)aceto-6-hydroxy-1,2,3,4-tetrahydro-(2-oxygen)naphthacene-5,12-dione and 3-(2-hydroxy)aceto-11-hydroxy-1,2,3,4-tetrahydro-(2-oxygen)naphthacene-5,12-dione [BCH-694] | 0 | 161.5 ± 13.4 | 48.8 ± 17.2 | 153.2 ± 1.0 | 61.0 ± 0.0 | 149.4 ± 12.9 | 67.1 ± 8.6 | 115.9 ± 94.8 | 0 | 128.0 ± 26.0 | 27.4 ± 4.3 | 137.2 ± 99.2 | 30.5 ± 8.6 | 6.1 ± 8.6 | 39.6 ± 12.9 | 
2 | 48 | 41.6 | 18.9 | 3-carbomethoxy-6-hydroxy-1,2,3,4-tetrahydro-(2-sulfur)naphthacene-5,12-dione and 3-carbomethoxy-11-hydroxy-1,2,3,4-tetrahydro(2-sulfur)naphthacene-5,12-dione [BCH-693] | 24.4 ± 17.2 | 67.1 ± 25.8 | 0 | 39.6 ± 4.3 | 0 | 67.1 ± 34.5 | 120.0 ± 0.0 | 400.0 | 0 | 27.4 ± 4.3 | 27.4 ± 4.3 | 51.8 ± 12.9 | 45.7 ± 21.5 | 20.0 ± 0.0 | 76.5 ± 21.9 | 
3 |  |  |  | CCOC(=O)C1CC2=C(CO1)C(=O)c1cc3ccccc3c(O)c1C2=O (stereo not shown) [BCH-653, Ethyl(6 and 11 hydroxy-5,12-dioxo-3,4,5,12-tetrahydro-anthraceno[2,3-c]pyran-3-yl)]formate] |  | 91.5 ± 43.1 |  | 35.5 ± 0.7 |  | 106.1 ± 21.5 |  | 64.0 ± 4.2 |  | 0 |  | 85.4 ± 25.8 | 18.3 ± 0.0 |  | 66.8 ± 8.2 | 
4 | 24.9 | 55.8 | 23.4 | CC(=O)Oc1c2c(c(O)c3ccccc13)C(=O)C1=C(CC(C(C)=O)OC1)C2=O (stereo not shown) [BCH-721] | 91.0 ± 86.2 | 183.0 ± 86.2 | 18.9 | 122.0 ± 0.0 | 55.0 ± 8.4 | 167.0 ± 21.9 | 45.5 ± 21.9 | 137.0 ± 21.2 | 76.0 ± 21.2 | 198.0 ± 21.2 | 78.0 ± 18.3 | 259.0 ± 21.2 |  | 21.0 ± 21.2 | 183.0 ± 86.2 | 
5 |  |  |  | Methyl(11-hydroxy-5,12-dioxo-3,4,5,12-tetrahydroanthraceno[2,3-c]pyran-3-yl)ketone and Methyl(5-hydroxy-5,12-dioxo-3,4,5,12-tetrahydroanthraceno[2,3-c]pyran-3-yl)ketone [BCH-687] | 61.0 ± 6.1 | 140.0 ± 32.3 | 152.5 ± 30.5 | 233.8 ± 17.6 | 71.1 ± 9.3 | 152.5 ± 50.0 | 81.3 ± 30.0 | 183.0 ± 81.0 | 34.6 ± 3.6 | 70.1 ± 13.0 | 0 | 410.8 ± 46.5 | 182.6 ± 35.2 | 0 | 153.6 ± 30.6 | cross resistance with adriamycin, MCF7/ADR vs MCF7 (MCF7/ADR): lack of cross resistance with adriamycin; zone of inhibition (LL; 10 μg/DISK): 62.8 ± 30.7 Zone Units

Row | Compound | IC50 (LOX) [µM] | IC50 (SKOV3; SKOV3) [µM] | IC50 (HT29; HT29) [µM] | zone of inhibition (MCF7/ADR; 10 μg/DISK) [Zone Units] | zone of inhibition (MCF7/ADR; 100 μg/DISK) [Zone Units] | zone of inhibition (LS180; 10 μg/DISK) [Zone Units] | zone of inhibition (LS180; 100 μg/DISK) [Zone Units] | zone of inhibition (MCF7; 10 μg/DISK) [Zone Units] | zone of inhibition (MCF7; 100 μg/DISK) [Zone Units] | zone of inhibition (P388; 10 μg/DISK) [Zone Units] | zone of inhibition (P388; 100 μg/DISK) [Zone Units] | zone of inhibition (B16; 10 μg/DISK) [Zone Units] | zone of inhibition (B16; 100 μg/DISK) [Zone Units] | zone of inhibition (M5076; 10 μg/DISK) [Zone Units] | zone of inhibition (M5076; 100 μg/DISK) [Zone Units] | zone of inhibition (LL; 100 μg/DISK) [Zone Units] | zone of inhibition (P388/ADR; 10 μg/DISK) [Zone Units] | zone of inhibition (P388/ADR; 100 μg/DISK) [Zone Units] | also measured
6 | CCOC(=O)[C@@H]1CC2=C(C(=O)c3c(c(O)c4ccccc4c3OC(C)=O)C2=O)[C@@H](O)O1 (mixture of isomers) [BCH-658, (1S,3S) and (1R,3R) Ethyl[11-acetoxy-1,6-dihydroxy-5,12-dioxo-3,4,5,12-tetrahydroanthraceno (2,3-c)pyran-3-yl]formate] | 66.2 |  |  | 0 | 0 | 48.8 ± 34.5 | 164.7 ± 25.8 | 0 |  | 42.7 ± 17.2 | 61.0 ± 0.0 | 0 | 0 | 26.6 ± 13.6 | 76.2 ± 21.5 | 51.9 ± 21.5 | 18.3 ± 8.6 | 51.3 ± 20.7 | IC50 (SKOV3; Homo sapiens, SK-OV-3, SKOV3): 11.2 µM; IC50 (HT29; Homo sapiens, HT-29, HT29): > 100 µM
7 | COC(=O)[C@@H]1CC2=C(C(=O)c3c(c(OC)c4ccccc4c3O)C2=O)[C@@H](O[C@H]2C[C@H](NC(=O)C(F)(F)F)[C@H](O)[C@H](C)O2)O1 (mixture of isomers) [BCH-674, (1'S,1S,3R) and 1'S,1R,3S) Methyl(11-hydroxy-6-methoxy-1-[2',3',6'-trideoxy-3-trifluoroacetamido-4'-hydroxy-L-lyxohexopyranose]-5,12-dioxo-3,4,5,12-tetrahydroanthra-ceno[2,3-c]pyran-3-yl) formate] | 2.06 |  |  | 0 | 339.6 ± 4.3 | 0 | 67.1 ± 8.6 | 0 | 76.2 ± 21.6 | 30.5 ± 25.8 | 137.2 ± 38.8 | 91.5 ± 60.3 | 122.0 ± 86.2 |  |  | 115.9 ± 8.0 | 0 | 150.0 ± 8.0 | IC50 (SKOV3; Homo sapiens, SK-OV-3, SKOV3): 7.46 µM; IC50 (HT29; Homo sapiens, HT-29, HT29): 6.63 µM; zone of inhibition (LL; 10 μg/DISK): 54.9 ± 8.6 Zone Units
